Assay results from ChEMBL document CHEMBL1201862, “PubChem BioAssay data set” (2004).
Calls of active or inactive are those of the source.

Tests used:
DNA topoisomerase = DNA topoisomerase (Yersinia pestis, UniProt A0A2S9PM60); assay: Yersinia topoisomerase I cleavage product accumulation – biochemical, cherry-pick, dose response (AID 588525)
[1] = biological target: Nucleotide-binding oligomerization domain-containing protein 2 (Homo sapiens, UniProt Q9HC29); assay: inhibition of NOD2-driven NF-kB reporter – cell-based, luminescence, uHTS, HEK293 (AID 1566); assay type: functional
[2] = biological target: Delta-type opioid receptor (Homo sapiens, UniProt P41143); assay: Counterscreen for agonists of heterodimerization of the mu 1 (OPRM1) and delta 1 (OPRD1) opioid receptors: Luminescence-based cell-based high throughput dose response assay to identify agonists of OPRD1 homodimerization. [Related pubchem assays (depositor defined):AID504326, AID504355, AID504692, AID504904, AID504905]; assay type: functional
HEK293 [3] = assay: inhibition of NOD1-driven NF-kB reporter – cell-based, luminescence, uHTS, primary screen (AID 1578); assay type: functional; settings: Homo sapiens
[4] = biological target: T1, Short transient receptor potential channel 4 (Mus musculus, UniProt Q9QUQ5); assay: block of DAMGO-driven TRPC4 calcium entry – cell-based, HEK293 TRPC4/mu-opioid, Fluo-4 calcium, dose response (AID 434942); assay type: functional;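 note: potency of inhibitors blocking the TRPC4 calcium response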
T1 sequence (Q9QUQ5 whole entry): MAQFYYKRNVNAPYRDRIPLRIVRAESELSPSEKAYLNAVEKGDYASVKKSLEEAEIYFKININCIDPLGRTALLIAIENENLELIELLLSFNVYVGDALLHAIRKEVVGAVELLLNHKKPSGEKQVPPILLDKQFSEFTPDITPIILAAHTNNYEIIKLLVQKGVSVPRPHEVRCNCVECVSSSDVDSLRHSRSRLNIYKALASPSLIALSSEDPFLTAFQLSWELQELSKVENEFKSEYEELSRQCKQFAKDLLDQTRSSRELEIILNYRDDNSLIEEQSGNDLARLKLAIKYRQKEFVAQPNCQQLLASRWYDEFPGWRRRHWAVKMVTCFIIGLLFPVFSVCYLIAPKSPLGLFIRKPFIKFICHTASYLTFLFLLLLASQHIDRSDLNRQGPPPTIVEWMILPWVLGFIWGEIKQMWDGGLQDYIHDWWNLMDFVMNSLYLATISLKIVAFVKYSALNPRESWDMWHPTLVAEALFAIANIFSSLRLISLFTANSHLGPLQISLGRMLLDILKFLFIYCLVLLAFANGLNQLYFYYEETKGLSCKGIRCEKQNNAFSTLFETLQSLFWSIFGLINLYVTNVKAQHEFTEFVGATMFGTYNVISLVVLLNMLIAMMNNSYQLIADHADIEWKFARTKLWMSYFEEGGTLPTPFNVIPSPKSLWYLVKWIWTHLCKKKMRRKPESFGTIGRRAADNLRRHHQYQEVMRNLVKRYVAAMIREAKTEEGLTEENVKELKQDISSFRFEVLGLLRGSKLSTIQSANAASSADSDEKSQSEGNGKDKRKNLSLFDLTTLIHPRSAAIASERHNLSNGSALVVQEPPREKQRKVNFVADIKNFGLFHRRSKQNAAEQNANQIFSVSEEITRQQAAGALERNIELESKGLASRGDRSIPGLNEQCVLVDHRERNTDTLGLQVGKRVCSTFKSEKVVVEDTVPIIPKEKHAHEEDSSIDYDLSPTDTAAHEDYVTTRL

HEK293 [5] = assay: cells; assay type: functional, cell-based; settings: Homo sapiens
HEK293 [6] = assay: cells; assay type: functional, cell-based; settings: Homo sapiens; remark: listed apart in the source
HEK293 [7] = assay: cells; assay type: functional, cell-based; settings: Homo sapiens; remark: listed apart in the source
Mu-type opioid receptor = Mu-type opioid receptor (Homo sapiens, UniProt P35372); assay: Counterscreen for agonists of heterodimerization of the mu 1 (OPRM1) and delta 1 (OPRD1) opioid receptors: Luminescence-based cell-based high throughput dose response assay to identify agonists of OPRM1 homodimerization.; assay type: functional;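 note: U2OS cells expressing OPRM1 and beta-arrestin as split beta-galactosidase partners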
[8] = biological target: 5-hydroxytryptamine receptor 5A (Homo sapiens, UniProt P47898); assay: Counterscreen for agonists of OPRM1-OPRD1 heterodimerization: luminescence-based cell-based high throughput dose response assay to identify agonists of 5-hydroxytryptamine (serotonin) 5A receptor (HTR5A). [Related pubchem assays (depositor defined):AID504326, AID504355, AID504692, AID504904, AID504905]; assay type: functional
HEK293 [9] = assay: NOD2 signaling inhibitors in MDP-stimulated cells, cell-based, uHTS, luminescence (AID 2001); assay type: functional; settings: Homo sapiens
[10] = biological target: Dual specificity protein kinase CLK1 (Homo sapiens, UniProt P49759); assay: inhibition of human CLK1 activity – biochemical, cherry-picked samples, selectivity assay for Dyrk1A inhibitor project, dose response (AID 588811)
[11] = biological target: Dual specificity tyrosine-phosphorylation-regulated kinase 1A (Rattus norvegicus, UniProt Q63470); assay type: biochemical, Homo sapiens
[12] = biological target: FAD-linked sulfhydryl oxidase ALR (Homo sapiens, UniProt P55789); assay: ALR-catalysed DTT oxidation blockers – biochemical, H2O2 detection, luminescence, cherry-pick, dose response (AID 493248)
[13] = biological target: T2, Alkaline phosphatase, tissue-nonspecific isozyme (Homo sapiens, UniProt P05186); assay: activation of tissue-nonspecific alkaline phosphatase – biochemical, TNAP isozyme, human IAP uHTS hits, selectivity assay for human IAP activator project, dose response (AID 488886); assay type: functional;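 note: potency of compounds raising TNAP activity as a selectivity check on IAP activators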
T2 sequence (P05186 whole entry): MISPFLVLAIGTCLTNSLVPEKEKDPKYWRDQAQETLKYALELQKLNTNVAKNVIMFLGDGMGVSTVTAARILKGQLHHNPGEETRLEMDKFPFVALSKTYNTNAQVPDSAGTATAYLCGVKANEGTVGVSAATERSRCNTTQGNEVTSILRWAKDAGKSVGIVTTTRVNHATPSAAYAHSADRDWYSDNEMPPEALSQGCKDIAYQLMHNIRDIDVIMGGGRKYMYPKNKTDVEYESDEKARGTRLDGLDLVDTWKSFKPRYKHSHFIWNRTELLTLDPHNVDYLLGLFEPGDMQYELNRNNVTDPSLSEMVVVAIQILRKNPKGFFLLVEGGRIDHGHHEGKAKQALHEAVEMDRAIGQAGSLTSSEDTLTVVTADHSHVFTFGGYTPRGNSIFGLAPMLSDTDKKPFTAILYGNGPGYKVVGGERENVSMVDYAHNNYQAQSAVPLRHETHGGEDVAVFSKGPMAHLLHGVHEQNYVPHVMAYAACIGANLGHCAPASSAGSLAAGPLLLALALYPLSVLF

[14] = biological target: T3, Intestinal-type alkaline phosphatase (Homo sapiens, UniProt P09923); assay: activation of human intestinal alkaline phosphatase – biochemical, luminescent, uHTS hits, set 2, dose response (AID 488817); assay type: functional;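 note: potency of activators that raise enzyme activity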
[15] = biological target: T3, Intestinal-type alkaline phosphatase; assay: human intestinal alkaline phosphatase activators, dose response, biochemical, luminescence, uHTS hits (AID 463120); assay type: functional
[16] = biological target: Intestinal-type alkaline phosphatase (Mus musculus, UniProt P24822); assay: PubChem AID 488874; assay type: functional
Sequence of Intestinal-type alkaline phosphatase (Mus musculus, UniProt P24822) (P24822 whole entry): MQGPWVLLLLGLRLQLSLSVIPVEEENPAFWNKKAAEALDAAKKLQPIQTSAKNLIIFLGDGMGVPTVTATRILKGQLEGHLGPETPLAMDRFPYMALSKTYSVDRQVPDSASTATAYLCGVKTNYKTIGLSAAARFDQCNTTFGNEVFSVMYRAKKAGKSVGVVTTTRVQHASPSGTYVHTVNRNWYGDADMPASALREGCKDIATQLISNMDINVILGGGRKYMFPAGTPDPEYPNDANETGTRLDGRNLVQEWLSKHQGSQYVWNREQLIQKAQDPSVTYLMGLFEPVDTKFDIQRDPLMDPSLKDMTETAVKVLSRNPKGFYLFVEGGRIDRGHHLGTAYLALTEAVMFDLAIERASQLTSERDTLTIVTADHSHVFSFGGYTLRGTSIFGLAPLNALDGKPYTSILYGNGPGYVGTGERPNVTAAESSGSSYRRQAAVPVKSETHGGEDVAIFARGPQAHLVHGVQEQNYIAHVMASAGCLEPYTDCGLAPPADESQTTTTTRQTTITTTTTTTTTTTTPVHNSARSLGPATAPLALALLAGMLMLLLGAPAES

T3 sequence (P09923 whole entry): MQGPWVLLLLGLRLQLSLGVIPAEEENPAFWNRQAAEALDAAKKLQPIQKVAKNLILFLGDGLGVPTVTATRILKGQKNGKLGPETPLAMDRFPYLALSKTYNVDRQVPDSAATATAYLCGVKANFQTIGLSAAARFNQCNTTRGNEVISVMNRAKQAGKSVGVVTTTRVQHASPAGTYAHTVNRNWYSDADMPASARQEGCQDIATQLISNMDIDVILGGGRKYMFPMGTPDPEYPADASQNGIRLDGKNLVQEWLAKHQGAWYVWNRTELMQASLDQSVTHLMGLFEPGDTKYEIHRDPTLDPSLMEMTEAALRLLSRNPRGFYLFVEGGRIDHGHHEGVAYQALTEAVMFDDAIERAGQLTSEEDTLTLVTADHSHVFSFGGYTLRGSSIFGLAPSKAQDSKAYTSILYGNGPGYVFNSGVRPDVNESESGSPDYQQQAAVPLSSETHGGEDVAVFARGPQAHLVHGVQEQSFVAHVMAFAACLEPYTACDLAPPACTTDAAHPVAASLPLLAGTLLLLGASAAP
Sequence of Delta-type opioid receptor (P41143 whole entry): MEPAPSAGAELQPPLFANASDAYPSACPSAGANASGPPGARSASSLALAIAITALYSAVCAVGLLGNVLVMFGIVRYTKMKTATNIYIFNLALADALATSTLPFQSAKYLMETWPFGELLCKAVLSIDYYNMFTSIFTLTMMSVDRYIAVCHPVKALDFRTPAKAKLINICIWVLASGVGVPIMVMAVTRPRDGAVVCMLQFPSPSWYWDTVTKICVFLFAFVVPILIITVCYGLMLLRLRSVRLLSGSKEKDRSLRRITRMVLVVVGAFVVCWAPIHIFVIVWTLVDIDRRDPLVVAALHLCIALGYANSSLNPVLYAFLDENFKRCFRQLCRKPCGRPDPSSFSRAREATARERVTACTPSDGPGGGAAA
Sequence of Mu-type opioid receptor (P35372 whole entry): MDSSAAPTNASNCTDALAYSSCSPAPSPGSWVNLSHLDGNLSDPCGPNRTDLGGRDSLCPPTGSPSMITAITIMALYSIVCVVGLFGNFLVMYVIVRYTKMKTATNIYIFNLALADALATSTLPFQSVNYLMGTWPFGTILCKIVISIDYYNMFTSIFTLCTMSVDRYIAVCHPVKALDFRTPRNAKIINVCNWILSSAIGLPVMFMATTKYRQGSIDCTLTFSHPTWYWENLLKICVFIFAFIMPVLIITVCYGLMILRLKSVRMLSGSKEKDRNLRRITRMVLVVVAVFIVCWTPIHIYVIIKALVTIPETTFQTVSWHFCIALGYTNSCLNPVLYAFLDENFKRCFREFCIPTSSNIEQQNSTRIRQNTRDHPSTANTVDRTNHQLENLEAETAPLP
Sequence of 5-hydroxytryptamine receptor 5A (P47898 whole entry): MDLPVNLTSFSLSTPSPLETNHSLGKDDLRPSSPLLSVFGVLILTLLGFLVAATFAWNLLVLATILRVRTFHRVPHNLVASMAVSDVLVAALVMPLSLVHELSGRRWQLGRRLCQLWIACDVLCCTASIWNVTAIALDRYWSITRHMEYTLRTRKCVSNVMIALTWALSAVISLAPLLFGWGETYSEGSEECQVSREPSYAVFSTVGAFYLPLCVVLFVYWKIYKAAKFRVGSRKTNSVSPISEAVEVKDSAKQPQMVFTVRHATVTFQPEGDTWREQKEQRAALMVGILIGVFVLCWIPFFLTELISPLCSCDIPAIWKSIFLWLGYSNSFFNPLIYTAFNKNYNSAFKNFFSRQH
Sequence of DNA topoisomerase (A0A2S9PM60 whole entry, the tested form may be a part): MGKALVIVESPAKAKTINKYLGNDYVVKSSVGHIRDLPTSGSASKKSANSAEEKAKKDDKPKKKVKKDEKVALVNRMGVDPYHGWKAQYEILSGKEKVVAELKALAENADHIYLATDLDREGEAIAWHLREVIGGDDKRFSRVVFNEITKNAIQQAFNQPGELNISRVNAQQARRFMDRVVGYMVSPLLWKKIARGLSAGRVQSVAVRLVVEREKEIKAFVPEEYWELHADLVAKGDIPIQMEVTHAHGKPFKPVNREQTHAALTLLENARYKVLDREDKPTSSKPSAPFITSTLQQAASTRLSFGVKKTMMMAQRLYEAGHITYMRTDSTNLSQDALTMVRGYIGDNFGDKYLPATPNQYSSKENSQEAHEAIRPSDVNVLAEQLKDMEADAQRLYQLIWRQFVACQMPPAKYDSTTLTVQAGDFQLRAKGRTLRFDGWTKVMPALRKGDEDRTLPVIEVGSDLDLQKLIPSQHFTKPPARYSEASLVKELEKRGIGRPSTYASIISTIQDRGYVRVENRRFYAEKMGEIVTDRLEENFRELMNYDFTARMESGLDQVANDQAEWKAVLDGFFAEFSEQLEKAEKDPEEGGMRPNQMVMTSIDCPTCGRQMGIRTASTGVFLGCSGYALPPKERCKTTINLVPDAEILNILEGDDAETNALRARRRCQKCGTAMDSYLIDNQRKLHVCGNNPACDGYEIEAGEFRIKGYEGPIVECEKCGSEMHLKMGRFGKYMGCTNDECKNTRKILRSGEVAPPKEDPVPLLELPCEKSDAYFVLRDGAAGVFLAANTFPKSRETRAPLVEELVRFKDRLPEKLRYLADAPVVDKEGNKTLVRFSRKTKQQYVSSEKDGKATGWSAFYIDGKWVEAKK
Sequence of Dual specificity protein kinase CLK1 (P49759 whole entry): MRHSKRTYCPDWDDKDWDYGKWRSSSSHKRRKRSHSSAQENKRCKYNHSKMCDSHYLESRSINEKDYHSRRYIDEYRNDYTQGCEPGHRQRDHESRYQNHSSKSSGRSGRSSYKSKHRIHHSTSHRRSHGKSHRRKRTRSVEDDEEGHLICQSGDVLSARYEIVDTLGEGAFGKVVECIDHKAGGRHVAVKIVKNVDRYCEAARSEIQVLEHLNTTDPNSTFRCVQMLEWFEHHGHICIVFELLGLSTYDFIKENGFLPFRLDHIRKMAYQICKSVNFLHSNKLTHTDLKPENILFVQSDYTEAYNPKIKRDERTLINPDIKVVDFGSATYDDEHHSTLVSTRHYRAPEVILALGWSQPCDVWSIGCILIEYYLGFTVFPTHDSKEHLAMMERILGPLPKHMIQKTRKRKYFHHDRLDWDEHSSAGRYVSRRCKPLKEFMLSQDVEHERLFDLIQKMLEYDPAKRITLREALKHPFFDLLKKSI
Sequence of Nucleotide-binding oligomerization domain-containing protein 2 (Q9HC29 whole entry, the tested form may be a part): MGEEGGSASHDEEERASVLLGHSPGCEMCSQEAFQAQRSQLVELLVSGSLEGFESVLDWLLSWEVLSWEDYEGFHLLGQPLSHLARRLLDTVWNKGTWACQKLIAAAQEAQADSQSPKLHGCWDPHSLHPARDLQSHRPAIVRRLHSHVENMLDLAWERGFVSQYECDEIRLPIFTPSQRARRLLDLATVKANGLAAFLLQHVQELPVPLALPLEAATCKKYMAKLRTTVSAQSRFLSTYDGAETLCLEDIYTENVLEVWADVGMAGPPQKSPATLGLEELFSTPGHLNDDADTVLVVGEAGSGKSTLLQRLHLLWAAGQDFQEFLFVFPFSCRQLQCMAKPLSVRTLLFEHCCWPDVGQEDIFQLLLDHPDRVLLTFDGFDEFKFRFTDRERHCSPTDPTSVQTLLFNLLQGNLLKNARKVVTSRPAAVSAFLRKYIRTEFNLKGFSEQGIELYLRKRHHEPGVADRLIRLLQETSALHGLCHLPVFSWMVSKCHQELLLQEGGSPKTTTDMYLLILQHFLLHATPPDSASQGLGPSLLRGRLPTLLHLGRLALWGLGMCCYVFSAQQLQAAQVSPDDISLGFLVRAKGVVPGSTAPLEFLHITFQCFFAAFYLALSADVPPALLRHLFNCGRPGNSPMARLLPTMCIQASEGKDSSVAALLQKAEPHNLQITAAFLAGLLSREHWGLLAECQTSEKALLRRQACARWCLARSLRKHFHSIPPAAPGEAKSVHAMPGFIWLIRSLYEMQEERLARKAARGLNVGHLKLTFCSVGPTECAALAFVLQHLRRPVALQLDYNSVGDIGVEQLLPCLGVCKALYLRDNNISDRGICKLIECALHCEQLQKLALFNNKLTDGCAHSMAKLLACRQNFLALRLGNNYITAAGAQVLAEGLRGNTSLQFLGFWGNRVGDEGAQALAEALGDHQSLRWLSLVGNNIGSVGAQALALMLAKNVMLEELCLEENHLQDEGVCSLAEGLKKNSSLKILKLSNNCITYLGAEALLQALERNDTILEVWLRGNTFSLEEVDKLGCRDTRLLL
Sequence of FAD-linked sulfhydryl oxidase ALR (P55789 whole entry): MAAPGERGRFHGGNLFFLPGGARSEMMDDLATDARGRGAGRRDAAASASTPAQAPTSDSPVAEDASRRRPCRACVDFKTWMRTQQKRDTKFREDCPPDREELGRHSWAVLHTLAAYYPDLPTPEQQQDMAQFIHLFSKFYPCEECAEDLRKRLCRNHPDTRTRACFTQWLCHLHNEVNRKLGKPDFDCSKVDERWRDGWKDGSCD

Nc1cc(O)nc(SCC(=O)N2N=C(c3ccc4ccccc4c3)CC2c2ccccc2)n1 (configuration not stated)
AC50 (DNA topoisomerase): 16.1 µM (active)

Cc1nc(N2CCN(c3ccccn3)CC2)c2c(C)c(C(=O)N3CCN(c4ccc(F)cc4)CC3)sc2n1
EC50 [1]: 5.26 µM (active)
EC50 [2]: > 92.4 µM (inactive)
EC50 (HEK293 [3]): 6.14 µM (active)
EC50 [4]: 1.19 µM (active)
IC50 (HEK293 [5]): 6.02 µM (active)
IC50 (HEK293 [6]): 17.1 µM (active)
IC50 (HEK293 [7]): > 20 µM (inactive)
EC50 (Mu-type opioid receptor): 10.8 µM (inactive)
EC50 [8]: > 92.4 µM (inactive)
IC50 (HEK293 [9]): 6.95 µM (active)

NC(=O)c1c(NC(=O)c2ccc(N3C(=O)CCC3=O)cc2)sc2c1CCCC2
AC50 [10]: 0.853 µM (active)
AC50 [11]: 3.9 µM (active)
AC50 [12]: 0.165 µM (active)

O=C(OC1C2CCC1C1CN(CCc3ccccc3)CC12)c1ccccc1 (configuration not stated)
EC50 [2]: > 92.5 µM (inactive)
EC50 [4]: 3.35 µM (active)
EC50 (Mu-type opioid receptor): > 92.5 µM (inactive)
EC50 [8]: > 92.5 µM (inactive)

O=C(NNC(=S)NCc1ccco1)c1ccccc1Br
EC50 [13]: 12 µM (active)
EC50 [14]: 13.8 µM (active)
EC50 [15]: 9.62 µM (active)
IC50 [16]: 53.9 µM (active)
